Assay results reported in patent publication US9334280B2, “Synthetic rigidin analogues as anticancer agents, salts, solvates and prodrugs thereof, and method of producing same” (New Mexico Technical Research Foundation, priority 2012, dated 2016).

Experiments:
[1] = tested on: UM-SCC22A head and neck cancer cells; assay: MTT antiproliferative assay, UM-SCC22A; assay type: cell-based; settings: Table 1A, 48 h, read-out: Concentration required to reduce the viability of cells by 50%, UM-SCC22A
Procedure: To evaluate antiproliferative properties of the compounds of Formula I, mitochondrial dehydrogenase activities were measured using the MTT assay. The cell lines were prepared by trypsinizing and seeding […] cells per well into microplates. All compounds were reconstituted in dimethyl sulfoxide (DMSO) at a concentration of either 100 mM or 25 mM prior to treatment. The cells were grown for 24 hrs before treatment at concentrations ranging from 0.004 to 100 microM and incubated for 48 hrs in 200 microL media. 20 microL of MTT reagent in serum free medium (5 mg/mL) was added to each well and incubated further for 2 hrs. Media was removed and the resulting formazan crystals were re-solubilized in 100 microL of DMSO and the optical density (OD) was measured using a Thermomax Molecular Device plate reader at a wavelength of 490 nm. The experiments were performed in quadruplicate and repeated at least twice for each compound per cell line. Cells treated with 0.1% DMSO were used as a negative control, while phenyl arsine oxide (PAO) was used as a positive killing control.

HeLa cells = assay: Flow cytometric cell cycle analysis (Vybrant Orange); assay type: cell-based, human; settings: 24 h
Procedure: To assess the effects of the analogues on the cell cycle, cell cycle analysis was performed. 70-80% confluent HeLa cells were trypsinized and seeded at an initial density of 2×10^5 cell per well into 6 well plates in DMEM supplemented with 10% FBS, 100 mg/L penicillin G and 100 mg/L streptomycin. The cells were allowed to adhere overnight and before treatment with compounds of Formula I at concentrations ranging from 0.1 to 10 microM. After 24 hrs, the cells were washed 3× with DMEM, trypsinized, pelleted, and re-suspended in 200 microL of culture medium containing 10 microM (2 microL/mL) vybrant orange dye. The samples in the labeling solution were transferred into Falcon tubes and incubated in a water bath for 30 mins at 37° C. The samples were then analyzed using a Becton Dickinson FACscan flow cytometer with CellQuest software. A 488 nm laser was utilized using parameters that can be found in Appendix B; 10,000 events were collected for analysis. Cells treated with 0.1% DMSO were used as a negative control and cells treated with colchicine were used as a positive control.
In further anticancer evaluation of compounds of Formula I cell cycle analysis was performed using the cell permeable DNA binding dye Vybrant Orange. In a normal population, cells are distributed among the three major phases of the cell cycle, G0/G1 in which there is one set of paired chromosomes per cell (2n), followed by the S or synthesis phase in which DNA is synthesized in preparation for division (there is a variable amount of DNA present during this phase) and finally G2/M phase in which the chromosomes of each cell have now been duplicated (4n). This DNA content can be measured using fluorescent DNA selective probes such as Vybrant Orange that produce signals that are proportional to DNA mass per cell. This dye interacts with double stranded DNA (dsDNA) in living cells and becomes fluorescent upon binding and thus can be used to track DNA content as cells progress through the various phases of the cell cycle using flow cytometry. Cell cycle analysis was performed on HeLa cells using Rig8 at various concentrations above and below the respective GI50. Since colchicine is a known antimitotic drug, it was utilized as a positive control, while HeLa cells treated with 0.1% DMSO were used as a negative control. FIG. 6 illustrates the results of this analysis using Rig 8 on HeLa cells.

**Q.** Which results are given for `O=C(c1ccccc1)c1[nH]c2[nH]cnc(=O)c2c1-c1cc(Br)cc(Br)c1` [Rig8, 6-Benzoyl-5-(3,5-dibromophenyl)-1H-pyrrolo[2,3-d]pyrimidin-4(7H)-one]?
**A.** IC50 [1]: 0.11 µM; % Relative DNA Content, G0/G1 (HeLa cells; 0.1 μM): 51.5 ± 4.3%; % Relative DNA Content, G2/M (HeLa cells; 0.1 μM): 36.6 ± 4.6%; % Relative DNA Content, S (HeLa cells; 0.1 μM): 14.1 ± 3.9%; % Relative DNA Content, G0/G1 (HeLa cells; 1 μM): 12.7 ± 2.2%; % Relative DNA Content, G2/M (HeLa cells; 1 μM): 73.4 ± 5.3%; % Relative DNA Content, S (HeLa cells; 1 μM): 9.7 ± 2.4%; % Relative DNA Content, G0/G1 (HeLa cells; 10 μM): 5.6 ± 2.2%; % Relative DNA Content, G2/M (HeLa cells; 10 μM): 85.9 ± 2.1%; % Relative DNA Content, S (HeLa cells; 10 μM): 5.3 ± 2.4%; cell cycle arrest (in words) (HeLa cells; 0.1-10 μM): dose-dependent cell cycle arrest in the G2/M phase
